Measured values reported in patent US20060079453A1, “Hla binding peptides and their uses” (priority 2002, published 2006).
Where two headings read alike, the source gives them in different places. No end group written: not given here.

Assays:
HLA-DR DRB1*1302 (DR13) = HLA-DR DRB1*1302 (DR13) (Homo sapiens, UniProt P01903+P01911, A100E/A169T/K41T/L162R/M171V/P40S/Q125H/Q178H/Q39Y/Q99D/R42S/S66N/T262R/V115G/W38E/Y61H); assay: biochemical; format: binding; conditions: DRBI *1302
HLA-DR DRB1*0901 (DR9) = HLA-DR DRB1*0901 (DR9) (Homo sapiens, UniProt P01903+P01911, A100R/A103E/D57H/D86V/F55Y/F60I/F76Y/I96F/K127E/L162R/M171V/P40D/Q125H/Q99R/R33Q/R42F/S133A/S66N/T210M/V115G/W38K/Y107V/Y59G/Y89S); assay: biochemical; format: binding; conditions: DRB1 *0901
HLA-DR DRB3*0101 (DR52) = HLA-DR DRB3*0101 (DR52) (Homo sapiens, UniProt P01903+P79483); assay: biochemical; format: binding
HLA-DR DRB1*0301 (DR3) = HLA-DR DRB1*0301 (DR3) (Homo sapiens, UniProt P01903+P01911, A100K/A102G/A103R/A169T/F55Y/I96L/K41T/L162R/M171V/P40S/Q125H/Q178H/Q39Y/R42S/S66N/T106N/T262R/W38E/Y61H); assay: biochemical; format: binding
Chain of HLA-DR DRB1*0301 (DR3) (P01903 26-254 limits assumed, other chains not shown): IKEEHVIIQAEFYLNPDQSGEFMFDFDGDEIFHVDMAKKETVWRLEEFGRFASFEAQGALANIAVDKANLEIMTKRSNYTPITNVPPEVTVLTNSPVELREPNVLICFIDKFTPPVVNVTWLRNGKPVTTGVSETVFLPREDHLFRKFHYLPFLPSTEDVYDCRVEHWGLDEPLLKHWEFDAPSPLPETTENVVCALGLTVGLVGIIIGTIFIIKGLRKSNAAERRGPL

HLA-DR DRB4*0101 (DR53) = HLA-DR DRB4*0101 (DR53) (Homo sapiens, UniProt P01903+P13762, G164S); assay: biochemical; format: binding; conditions: DRB4 *0101
HLA-DR DRB1*1101 (DR11) = HLA-DR DRB1*1101 (DR11) (Homo sapiens, UniProt P01903+P01911, A100R/A169T/A87E/I96F/K41T/L162R/M171V/P40S/Q125H/Q178H/Q39Y/Q99D/R42S/S66Y/T262R/V115G/W38E); assay: biochemical; format: binding
Chain of HLA-DR DRB1*1101 (DR11) (P01903 26-254 limits assumed, other chains not shown): as above

HLA-DR DRB1*0405 (DR4) = HLA-DR DRB1*0405 (DR4) (Homo sapiens, UniProt P01903+P01911, A100R/A169T/D86S/F76Y/I96L/K127E/L162R/M171V/N62H/P40V/Q125Y/R42H/S133A/S149N/S66Y/V115G/V209L/W38E); assay: biochemical; format: binding; conditions: DRB1 *0405
HLA-DR DRB1*0802 (DR8) = HLA-DR DRB1*0802 (DR8) (Homo sapiens, UniProt P01903+P01911, A100R/A103L/A169T/F76Y/H45Y/I96F/K41T/L162R/M171V/P40S/Q125H/Q178H/Q39Y/Q99D/R218S/R42G/S66Y/V115G/W38E); assay: biochemical; format: binding
HLA-DR DRB1*1501 (DR15) = HLA-DR DRB1*1501 (DR15) (Homo sapiens, UniProt P01903+P01911); assay: biochemical; format: binding; conditions: DRBI *1501
HLA-DR DRB5*0101 (DR51) = HLA-DR DRB5*0101 (DR51) (Homo sapiens, UniProt P01903+Q30154); assay: biochemical; format: binding
[1] = molecular target: HLA-DQ DQA1*0301/B*0302 (DQ8) (Homo sapiens, UniProt P01909+P01920, A209T/A45G/C70Q/D89A/DUP78-78/E183D/E77G/F237L/G63E/H199R/I129T/K197E/L178F/L74F/L98V/Q57E/Q76R/S185I/S97I/T217I/T49S/V73L/Y58L); assay: biochemical
HLA-DR DRB1*0701 (DR7) = HLA-DR DRB1*0701 (DR7) (Homo sapiens, UniProt P01903+P01911, A100R/A102G/A103Q/D57E/D86V/E43K/F76Y/K127E/L162R/M171V/P40G/Q125H/Q99D/R33Q/R42Y/R54Q/S133A/S66F/T210M/V115G/Y107V/Y59L/Y89S); assay: biochemical; format: binding
HLA-DR DRB1*0401 (DR4) = HLA-DR DRB1*0401 (DR4) (Homo sapiens, UniProt P01903+P01911, A100K/A169T/F76Y/I96L/K127E/L162R/M171V/N62H/P40V/Q125Y/R42H/S133A/S149N/S66Y/V115G/V209L/W38E); assay: biochemical; format: binding
[2] = molecular target: HLA-DQ DQA1*0301/B*0301 (DQ7) (Homo sapiens, UniProt P01909+P01920, A209T/C70Q/DUP78-78/E183D/F237L/G63E/I129T/K197E/L178F/L74F/L98V/Q57E/Q76R/S185I/S97I/T49S/V73L); assay: biochemical; format: binding
[3] = molecular target: HLA-DQ DQA1*0501/B*0201 (DQ2) (Homo sapiens, UniProt P01909+P01920, A45G/A70V/D89A/E106A/E77G/E98D/H199R/L107V/N214S/P84L/P87L/T103K/T109R/T172A/T60S/V78E/V99I/Y58L/Y62S/Y69I/Y79F); assay: biochemical
HLA-DR DRB1*0101 (DR1) = HLA-DR DRB1*0101 (DR1) (Homo sapiens, UniProt P01903+P01911, A100R/D57E/F55L/F60I/F76Y/I96L/L162R/M171V/P40L/Q125E/R42F/V115G/Y59C); assay: biochemical; format: binding
HLA-DR DRB5*0201 = format: binding, human; conditions: read-out: DRB5 *0201

Chain of HLA-DR DRB1*1302 (DR13) (P01903 26-254 limits assumed, other chains not shown): as above

Sequence | IC50 (HLA-DR DRB1*1302 (DR13)) [nM] | IC50 (HLA-DR DRB1*0901 (DR9)) [nM] | IC50 (HLA-DR DRB3*0101 (DR52)) [nM] | IC50 (HLA-DR DRB1*0301 (DR3)) [nM] | IC50 (HLA-DR DRB4*0101 (DR53)) [nM] | IC50 (HLA-DR DRB1*1101 (DR11); DRB1 *1101) [nM] | IC50 (HLA-DR DRB1*0405 (DR4)) [nM] | IC50 (HLA-DR DRB1*0802 (DR8)) [nM] | IC50 (HLA-DR DRB1*1501 (DR15)) [nM] | IC50 (HLA-DR DRB5*0101 (DR51); DRB5 *0101) [nM] | IC50 [1] [nM] | IC50 (HLA-DR DRB1*0701 (DR7); DRB1 *0701) [nM] | IC50 (HLA-DR DRB1*0401 (DR4); DRB1 *0401) [nM] | IC50 [2] [nM] | IC50 [3] [nM] | also measured
MSYNLLGFLQRSSNT | 1330 | 8970 | 51800 | 108000 | 4660 | 3070 | 433 | 900 | 6.8 | 9 | > 51200 | 8870 | – | – | – | –
QHLCGSHLVEALYLV | 7620 | 7420 | 14800 | 48600 | 1480 | > 10500 | 9820 | > 54400 | – | 32000 | 8410 | 86 | 13000 | 2550 | 359 | IC50 (HLA-DR DRB1*0101 (DR1); DRB1 *0101): 170 nM
RLFDNASLRAHRLHQ | 84 | 23800 | 11400 | 97 | 3210 | – | – | 15000 | 85 | 557 | > 36200 | – | 77 | – | – | IC50 (HLA-DR DRB1*0101 (DR1); DRB1 *0101): 89 nM
IDVWLGGLAKNFLPY | – | – | – | – | – | – | – | – | – | – | – | – | – | – | > 4170 | –
LQLHVDKAVSGLRSL | 53 | > 78900 | 1040 | 22 | 31 | 910 | 13600 | 801 | 2710 | 76 | 7840 | 3210 | 9.7 | 88 | 7590 | –
SAAPLRTITADTFRK | – | – | – | – | – | – | 1460 | 28100 | – | – | > 46700 | 3650 | – | 301 | 1100 | –
AAFAAAKTAAAFA | – | – | – | – | – | – | – | – | – | – | – | – | – | – | – | IC50 (HLA-DR DRB3*0101 (DR52); read-out: DRB3 *0101): 20000 nM; IC50 (HLA-DR DRB1*1101 (DR11); read-out: DRB1 *1101): 4.6 nM; IC50 (HLA-DR DRB1*0401 (DR4); read-out: DRB1 *0401): 0.19 nM; IC50 ([2]; read-out: DQB1*0301): 49 nM; IC50 (HLA-DR DRB5*0201): 6.4 nM; IC50 (HLA-DR DRB5*0101 (DR51); read-out: DRB5 *0101): 25 nM; IC50 (HLA-DR DRB1*0101 (DR1); read-out: DRB1 *0101): 1.3 nM; IC50 (HLA-DR DRB1*0701 (DR7); read-out: DRB1 *0701): 67 nM
